Source: article PMC3949517 (Acta Crystallographica Section D: Biological Crystallography, 2014)
Several values for one entry are separate records, joined by “and”; a condition that tells them apart may be missing. Equal entries are not always repeated. Bridge positions count the residues as written; N and C are the ends. Ends that are not written are not given here. Peptide text beside a SMILES is read from it. * marks the point of attachment. Biotin = O=C1N[C@H]2[C@H](CS[C@H]2CCCCC(=O)*)N1

What was measured:
A17κ reactibody = type: binding, human
A17λ reactibody = type: binding, human; settings: for Kd: read-out: Kd (BiaCore affinity constant)
[1] = test system: A17κ reactibody (FabA17κ); type: biochemical, human
[2] = test system: A17λ reactibody (FabA17λ); type: biochemical, human
A17 reactibody = settings: cited from earlier work
scFvA17 = type: binding, human
[3] = test system: recombinant Fab reactibodies (FabA17κ, FabA17λ); type: binding, human
[4] = test system: A17κ reactibody (FabA17κ); type: biochemical, human; remark: listed apart in the source
[5] = test system: A17λ reactibody (FabA17λ); type: biochemical, human; remark: listed apart in the source
[6] = test system: A17κ reactibody (FabA17κ); type: biochemical, human; remark: listed apart in the source
[7] = molecular target: T1, pep50L, linear (reduced) synthetic peptide 50 (synthetic (phage library-derived), cysteine pairing not given here); experiment: SPR; Biacore T200, SA sensor chip; biotinylated synthetic peptides immobilised, antibodies injected at a range of concentrations, 10 µl/min, 298 K; association and dissociation 300 s each; 1:1 binding model, affinity-analysis option; settings: both partners purified
T1 construct: also called pep50 linear form; source: synthetic peptide
T1 chain: GACRNPWGLTCGAAGAEK(Biotin)-NH2

[8] = molecular target: T2, pep54L, linear (reduced) synthetic peptide 54 (synthetic (phage library-derived), cysteine pairing not given here); experiment: as above; settings: both partners purified
T2 construct: also called pep54 linear form; source: synthetic peptide
T2 chain: GACPNPWGLLCGAAGAEK(Biotin)-NH2

CC(C)C[C@@H]1NC(=O)CNC(=O)[C@H](Cc2c[nH]c3ccccc23)NC(=O)[C@@H]2CCCN2C(=O)[C@H](CC(N)=O)NC(=O)[C@H](CCCNC(=N)N)NC(=O)[C@@H](NC(=O)[C@H](C)NC(=O)CN)CSSC[C@@H](C(=O)NCC(=O)N[C@@H](C)C(=O)N[C@@H](C)C(=O)NCC(=O)N[C@@H](C)C(=O)N[C@@H](CCC(=O)O)C(=O)N[C@@H](CCCCNC(=O)CCCC[C@@H]2SC[C@@H]3NC(=O)N[C@@H]32)C(N)=O)NC(=O)[C@H]([C@@H](C)O)NC1=O [50C] (H-GACRNPWGLTCGAAGAEK(Biotin)-NH2; disulfide 3-11)
affinity (in words) (A17κ reactibody): high affinity | binding activity of A17κ compared with A17λ (in words) (A17κ reactibody): A17κ was more active in binding either the linear or the cyclic form of pep50 | Kd (A17κ reactibody; read-out: Kd (BiaCore affinity constant)): 0.9 µM | affinity (in words) (A17λ reactibody): high affinity

CC(C)C[C@H](NC(=O)CNC(=O)[C@H](Cc1c[nH]c2ccccc12)NC(=O)[C@@H]1CCCN1C(=O)[C@H](CC(N)=O)NC(=O)[C@H](CCCNC(=N)N)NC(=O)[C@H](CS)NC(=O)[C@H](C)NC(=O)CN)C(=O)N[C@H](C(=O)N[C@@H](CS)C(=O)NCC(=O)N[C@@H](C)C(=O)N[C@@H](C)C(=O)NCC(=O)N[C@@H](C)C(=O)N[C@@H](CCC(=O)O)C(=O)N[C@@H](CCCCNC(=O)CCCC[C@@H]1SC[C@@H]2NC(=O)N[C@@H]21)C(N)=O)[C@@H](C)O [50L] (H-GACRNPWGLTCGAAGAEK(Biotin)-NH2)
affinity (in words) (A17κ reactibody): high affinity | binding activity of A17κ compared with A17λ (in words) (A17κ reactibody): A17κ was more active in binding either the linear or the cyclic form of pep50 | affinity (in words) (A17λ reactibody): high affinity | Kd (A17λ reactibody): 2.3 µM

CC(C)C[C@@H]1NC(=O)CNC(=O)[C@H](Cc2c[nH]c3ccccc23)NC(=O)[C@@H]2CCCN2C(=O)[C@H](CC(N)=O)NC(=O)[C@@H]2CCCN2C(=O)[C@@H](NC(=O)[C@H](C)NC(=O)CN)CSSC[C@@H](C(=O)NCC(=O)N[C@@H](C)C(=O)N[C@@H](C)C(=O)NCC(=O)N[C@@H](C)C(=O)N[C@@H](CCC(=O)O)C(=O)N[C@@H](CCCCNC(=O)CCCC[C@@H]2SC[C@@H]3NC(=O)N[C@@H]32)C(N)=O)NC(=O)[C@H](CC(C)C)NC1=O [54C] (H-GACPNPWGLLCGAAGAEK(Biotin)-NH2; disulfide 3-11)
binding activity of A17λ compared with A17κ (in words) (A17λ reactibody): A17λ was more active than A17κ

CC(C)C[C@H](NC(=O)CNC(=O)[C@H](Cc1c[nH]c2ccccc12)NC(=O)[C@@H]1CCCN1C(=O)[C@H](CC(N)=O)NC(=O)[C@@H]1CCCN1C(=O)[C@H](CS)NC(=O)[C@H](C)NC(=O)CN)C(=O)N[C@@H](CC(C)C)C(=O)N[C@@H](CS)C(=O)NCC(=O)N[C@@H](C)C(=O)N[C@@H](C)C(=O)NCC(=O)N[C@@H](C)C(=O)N[C@@H](CCC(=O)O)C(=O)N[C@@H](CCCCNC(=O)CCCC[C@@H]1SC[C@@H]2NC(=O)N[C@@H]21)C(N)=O [54L] (H-GACPNPWGLLCGAAGAEK(Biotin)-NH2)
Kd (A17λ reactibody): 18 µM

CCOP(=O)(OCC)Oc1ccc([N+](=O)[O-])cc1 [paraoxon, O,O-Diethyl O-(4-nitrophenyl)phosphate]
k2/KD, paraoxon [1]: 1.15 ± 0.52 M–1 min–1 | k2/Kd, paraoxon ([1]; pH 7.4): 1.2 0.5 M ^1min^1 | k2/KD, paraoxon [2]: 1.63 ± 0.65 M–1 min–1 | k2/Kd, paraoxon ([2]; pH 7.4): 1.6 0.6 M ^1min^1 | reaction with A17 reactibody (in words) (A17 reactibody): hydrolyzing

CPNPWGLLC (disulfide 1-9 (inferred)) [pep54]
binding to scFvA17 (in words) (scFvA17): specifically bind | effect of phosphonylation of scFv on ELISA signals (in words) (scFvA17): significantly enhanced the ELISA signals | binding by recombinant Fab reactibodies (in words) [3]: capable of binding | effect of phosphonylation of the Fabs on level of binding (in words) [3]: reduced the level of binding

CRNPWGLTC (disulfide 1-9 (inferred)) [pep50]
binding to scFvA17 (in words) (scFvA17): specifically bind | effect of phosphonylation of scFv on ELISA signals (in words) (scFvA17): significantly enhanced the ELISA signals | binding by recombinant Fab reactibodies (in words) [3]: capable of binding | effect of phosphonylation of the Fabs on level of binding (in words) [3]: reduced the level of binding

p-nitrophenyl 8-methyl-8-azabicyclo[3.2.1]octylphenylphosphonate [phosphonate X]
Ea (activation-energy parameter), phosphonate X [4]: 12.5 1.3 kcalmol^1 | Kd ([4]; pH 7.4): 120 µM and 150 µM and 80 µM and 130 µM | k2, phosphonate X ([4]; pH 7.4): 0.24 0.03 min^1 | Ea (activation-energy parameter), phosphonate X [5]: 11.4 0.5 kcalmol^1 | Kd ([5]; pH 7.4): 110 µM and 145 µM and 170 µM and 130 µM and 180 µM | k2, phosphonate X ([5]; pH 7.4): 0.28 0.02 min^1 | rate of induced-fit stage, A17κ vs A17λ (in words) [6]: induced-fit stage is more rapid in the κ variant | reaction with A17 reactibody (in words) (A17 reactibody): irreversibly binding

B1: FabA17λ (Fab of the A17 reactibody with the λ light-chain constant domain) (Fab, V domains shown)
VH: QVQLQESGPGLVKPSETLSLTCAVSGYSISSGYYWGWIRQPPGKGLEWIGSIYHSGSTYYNPSLKSRVTISVDTSKNQFSLKLSSVTAADTAVYYCAGLTQSSHNDANWGQGTLVTVSS
VL: QSVLTQPPSVSAAPGQKVTISCSGSSSNIGNNYVSWYQQLPGTAPKLLIYDNNKRPSGIPDRFSGSKSGTSATLGITGLQTGDEADYYCGTWDSSLNPVFGGGTKLTVL
notes: as the heavy chain of m1 (HCH: A17 VH, human CH1, hinge region); natural-type λ light chain: A17 VL (identical to the VL of m1) with the J2 segment and the constant region of human λ2 light chain; also called FabA17 λ variant; source: Pichia pastoris GS115, culture medium, purified (Talon, Mono Q, Superdex 75)
Kd [7]: 2.3 µM | Kd [8]: 18 µM
